# Results as given in publication PMC12610274, “Identification of Marrubiin as a Cathepsin C Inhibitor for Treating Rheumatoid Arthritis” (Molecules, 2025).
# How the values were obtained:
# [1] = test system: Cat G; assay: AIA model, serum Cat G activity; format: in vivo, Sprague-Dawley rats; settings: rat AIA, high dose 60 mg/kg gavage, 15 days
# Protocol: Thirty 4-week-old male Sprague-Dawley rats (weighing 120–130 g) were randomly divided into 6 groups (5 rats per group) after 1 week of adaptive feeding, namely the normal group, model group, low-dose experimental group (15 mg/kg), medium-dose experimental group (30 mg/kg), high-dose experimental group (60 mg/kg), and positive control group (30 mg/kg). Starting from Day 0 of the experiment, rats in the administration groups and model group were injected intradermally with 0.1 mL of CFA into the left hind paw to induce AIA, while rats in the normal group were injected intradermally with an equal volume (0.1 mL) of normal saline as a control. After 13 consecutive days of feeding, rats treated with CFA successfully developed typical AIA symptoms. […] During the experiment, the body weight, mental state, activity ability, hair color changes, and paw appearance changes of the rats were observed and recorded daily. In addition, on Day 0 of the experiment (baseline period), the basic paw volume of all rats was accurately measured using a plethysmometer, which served as a reference standard for subsequent evaluation of inflammation severity. From Day 13 to Day 28 of the experiment, the paw volume of the rats was measured repeatedly every 3 days. The degree of paw swelling was quantified by calculating the change in paw volume relative to the baseline. […] The cytokine levels in serum were measured. […]
# [2] = test system: LPS-induced NO release by RAW 264.7 macrophages; assay: LPS-induced NO release, Griess reagent; format: cell-based; settings: Mus musculus, RAW264.7; LPS-stimulated RAW 264.7, 24 h
# Protocol: RAW264.7 cells in the logarithmic growth phase were counted and diluted to a concentration of 6 × 10^4 cells/mL. After thorough mixing, the cell suspension was seeded into 48-well plates and incubated in a humidified atmosphere containing 5% CO2 at 37 °C. Following 24 h of incubation, the culture medium was carefully aspirated, and the cells were gently washed with phosphate-buffered saline. […] After 1 h of pre-incubation, 30 μL of lipopolysaccharide (1 μg/mL) was added to each well except for the blank control group, which remained unstimulated. Following an additional 24 h incubation under identical conditions, the culture supernatants were collected to assess NO production using the Griess reagent assay. Concentrations of pro-inflammatory cytokines and chemokines were determined using commercially available ELISA kits according to the protocols.
# [3] = test system: NSPs; assay: Stability (protein level) of NSPs in U937 cells, Western blot, NSPs together; format: cell-based, human; settings: U937, 10 μM, 24 h
# Protocol: The Western blot experiments in this study were performed as described below. Cells in the logarithmic growth phase were collected in appropriate numbers according to different experimental purposes. After being thoroughly washed with phosphate-buffered saline and centrifuged, the cell pellets were resuspended in phosphate-buffered saline to obtain single-cell suspensions. Cells were fully lysed using RIPA buffer (Beyotime, P0013B) supplemented with EDTA-free protease and phosphatase inhibitor (Abcam, ab201120). Total cellular protein solutions were obtained after centrifugation to remove cell debris. The isolated proteins were quantified using the BeyoBCA protein assay kit (Beyotime, P0399M) following the operational protocol. The quantified protein samples were thoroughly mixed with protein loading buffer, boiled on a dry bath for 5 min, and then cooled to room temperature for Western blot analysis. […] Finally, enhanced chemiluminescent horseradish peroxidase substrate (Tanon Science & Technology Co., Ltd., Shanghai, China, 180-506) was used to visualize protein bands on a ChemiDoc XRS system (Bio-Rad Laboratories, Inc., Hercules, CA, USA), and the protein bands were quantified using Image Lab analysis software (Version 6.1) (Bio-Rad). […]
smiles,measurement,setting,value
"C[C@@H]1C[C@H]2OC(=O)[C@@]3(C)CCC[C@@](C)([C@@H]23)[C@@]1(O)CCc1ccoc1 [Marrubiin, marrubiin]","serum Cat G activity, % of control group",[1],~64%
same,IC50,[2],830 nM
same,"content of NSPs, % of the original level",[3],75.4–87.8%
